# Values of other authors as cited in patent US9034354B2, “Bacteriostatic and anti-collagenolytic dental materials through the incorporation of polyacrylic acid modified CuI nanoparticles” (MUSC Foundation for Research Development, priority 2012, dated 2015).
# Test system: Streptococcus mutans
# Conditions: discs of composite resin containing MDPB versus discs without MDPB, in the presence of Streptococcus mutans
smiles,measurement,value
"C=C(C)C(=O)OCCCCCCCCCCCC[n+]1ccccc1.[Br-] [MDPB, 12-methacryloyloxydodecylpyridinium bromide]",numbers of bacteria recovered from the discs reduced by,97%
